Here are results for two compounds from patent US20250352654A1, “PHARMACEUTICAL AGENT CONJUGATES TO MODULATE MACROPHAGE AND INFLAMMATORY FUNCTIONS AND USES THEREOF” (REGENTS OF THE UNIVERSITY OF MINNESOTA, priority 2022, published 2025).

Broadly, the AUC(0-t) is exposure summed from dosing to a finite time, without extrapolation to infinity.

Bridge positions count the residues as written; N and C are the ends. Peptide text beside a SMILES is read from it. * marks the point of attachment. 5FAM = O=C1OC2(c3ccc(O)cc3Oc3cc(O)ccc32)c2ccc(C(=O)*)cc21; Ahx = NCCCCCC(=O)O

Data set [1] is described as follows: Short-term side effects of DEX conjugates in CIA mice. The class given is in vivo, mouse. Conditions: 0.01 mg kg-1 DEX equivalent i.v. every two days for one week. The method, then:
(§1) (A) Quantification of immunofluorescent signals (Top) and representative immunofluorescent images (bottom) of TUNEL-positive cells showing apoptotic cells in tissues of mice receiving short-term treatments. (B-C) Plasma levels of liver enzymes alanine transaminase (ALT) and (F) aspartate transaminase (AST). […] Thymus and spleen weight in mice receiving long-term treatments.
(§2) The TUNEL staining was performed using an In Situ Cell Death Detection Kit (Roche Diagnostics GmbH, Mannheim, Germany). The paraffin sections were stained with TUNEL reaction mixture for 1 h at 37° C. followed by Hoechst staining for nucleus. The images were captured by using fluorescence microscopy EVOS M5000 and the fluorescence intensity of TUNEL positive cells was evaluated by ImageJ software for semi-quantification.
(§3) The aminotransferase quantification was performed to determine toxicity effect of different formulations of PSL on the liver. Blood samples were collected by cardiac puncture after the treatment. The levels of aspartate aminotransferase (AST) and alanine aminotransferase (ALT) in plasma were measured using assay kits from Stanbio (Boerne, TX).
(§4) Additionally, we examined the commonly seen systemic side effects including the reduced thymus and spleen weight due to increased apoptosis after a short-term low dose and a long-term glucocorticoid usage.

A short description of data set [2]: In vivo pharmacokinetics of DEX conjugates. Conditions: male, DBA/1J, mouse, plasma, iv, 1 mg kg^-1 (DEX equivalent); healthy mice; mean ± SD (n = 3).
Procedure: All the animal experiments were performed on 3 mice per group. The data are presented as the mean±standard deviation (SD). […] All the animal experiments were performed on 3 mice per group. The data are presented as the mean±standard deviation (SD). Statistical significance was calculated using Student's t test. *P<0.05, **P<0.01 between groups. […] ND, not determined.
HPLC-MS/MS analysis was performed using the chromatographic system consisting of UltiMate 3000 RSLCnano System (Thermo Fisher Scientific) and a ZORBAX C18 column (5 μm, 150 mm 0.5 mm, Agilent, Santa Clara, CA). The mobile phase was a mixture of H2O/acetonitrile with a gradient elution (from 90:10 to 10:90 and return to 90:10, v/v) at a flow rate of 15 μl/min. The eluent was introduced directly into the electrospray source of a tandem quadrupole mass spectrometer (TSQ VANTAGE, Thermo Fisher Scientific) that was operated in the positive mode. The spray voltage was set at 3000 V. The compounds were analyzed by multiple reaction monitoring (MRM) of the transitions of m/z (ESI+) 361.24→147.06 for PSL.
Healthy DBA/1J male mice at age of 8-9 weeks were deprived of food overnight with free access to water. […] Approximately 20 IL of blood was collected via facial vein at 5, 15, 30, 60 min and, 2, 6, 12, 24, and 48 h, and plasma were obtained by centrifugation at 500×g for 10 min. […]
Data set [3] can be described thus: Long-term toxicity of DEX conjugates in healthy mice. In kind it is in vivo, mouse. Conditions: 2 mg kg-1 DEX equivalent, daily i.v. for 2 weeks. The method, then: as §1, §2, §3, §4
Data set [4] can be described thus: DEX-PEG conjugations with different PEG lengths in obese mice with ALI. Conditions: 0.1 mg/kg DEX equivalent i.v. every other day for 3 weeks. In kind it is in vivo, mouse. The method, then: (A) Body weight of mice in each treatment group. (B) Blood glucose of mice during the ITT experiment. Mice were fasted for 6 hours, and […] of insulin was administered via intraperitoneal (i.p.) injection. The blood glucose levels were measured using Clarity BG1000 Blood Glucose Meter Strips at 0, 15, 30, 60, 90, and 120 minutes after the injection. (C) Thymus weight of mice in each group at the end of the study. Triglycerides (D), total cholesterol (E) and non-HDL cholesterol (F) in mice plasma were quantified by LiquiColor® Test (Enzymatic) Kit. Error bars indicate S.E.M., n=4. *p<0.05 and **p<0.01 (Student's t-test).
Liver was collected, fixed and sectioned. H&E staining was carried out according to the standard protocol. Scale bar, […] for all images.
Male C57 mice were subjected to high-fat diet feeding for 8 weeks to induce obesity. An acute lung injury (ALI) model was established in the obesity mice by administering 30 μg of LPS intratracheally per mouse.
In addition, lean mice and obese mice without ALI were included in the study as controls and received no treatment. Body weight of the mice was monitored every other day during the study. One day prior to sacrificing the mice, an insulin tolerance test (ITT) was conducted. Blood and major organs were collected at the end of the study, and plasma triglycerides, total and non-HDL cholesterol were quantified. The organs were weighed and sectioned for H&E staining.

Data set [5] relates to inflamed synovium of the arthritic joints. The experiment in a line: FAM-CRV homing in CIA mice (IHC/IF). The class given is in vivo, mouse. The note with it: i.v., 1 h, IHC. The method, then: FIGS. 7B-7D illustrates In vivo CRV peptide distribution in arthritic mouse models. (B) Scheme of synthesis of 64Cu-DOTA-CRV. (C) Representative immunohistochemistry (IHC) images of peptide accumulation in the tissues of collagen-induced-arthritis (CIA) mice with anti-FITC antibody for FAM-labeled CRV and FAM-GGS, upon intravenous injection for 1 h, respectively. Scale bars: 100 μm. (D) Representative IHC images of CRV-peptide and a control peptide (GGS) accumulation in the ankle joints of K/B×N serum-transfer arthritic mice at 1 h post intravenous injection as detected by FAM signals with anti-FITC antibody. Scale bar: 200 μm for 10× magnification; 100 μm for 20× magnification. All the animal experiments were performed in 3 mice per group. DOTA, 1,4,7,10-tetraazacyclododocane tetraacetic acid; FAM, carboxyfluorescein; FITC, fluorescein isothiocyanate.
FIG. 8A-8G CRV targets the inflamed synovium of the arthritic joints. (A) Scheme of the establishment of collagen-induced arthritis (CIA) model. (B) In vivo PET/CT images of 64Cu-DOTA and 64Cu-DOTA-CRV accumulation at the joints of mice with CIA. […] (C) Quantification of 64Cu-DOTA or 64Cu-DOTA-CRV uptake at the knees and ankles by analyzing PET data of the region of interest (ROI). […] (E) Representative IHC images of CRV-peptide accumulation in the knee joint as detected by FAM signals with anti-FITC antibody. […]

As for `C[C@@H]1C[C@H]2[C@@H]3CCC4=CC(=O)C=C[C@]4(C)[C@@]3(F)[C@@H](O)C[C@]2(C)[C@@]1(O)C(=O)CO` [DEX, dexamethasone], in data set [1], the “apoptosis in tissues (TUNEL), short-term” value is “increases the level of apoptosis mainly in the thymus”. For the same compound, the AUC(0-t) in data set [2] worked out at 23.2 ± 5.14 ng·h/mL. Besides, in data set [3], the “apoptosis in thymus and spleen (TUNEL), long-term” value was “increased apoptosis in thymus and spleen”; the “thymus and spleen weight, long-term” value is “most significant weight loss of thymus and spleen”. Also, in data set [4], the Thymus weight entry is “reduces thymus weight”, the “body weights or blood glucose” value is reported as “no change” and the “triglycerides in the plasma” value is “elevates the blood triglyceride”.
Turning to `CC(C)C[C@@H]1NC(=O)[C@H](C(C)C)NC(=O)[C@H](CCCNC(=N)N)NC(=O)[C@@H](NC(=O)CCCCCNC(=O)c2ccc3c(c2)C(=O)OC32c3ccc(O)cc3Oc3cc(O)ccc32)CSSC[C@@H](C(=O)O)NC(=O)[C@H](CO)NC(=O)CNC(=O)[C@H](CO)NC(=O)[C@H](CCCNC(=N)N)NC1=O` [CRV] ({5FAM-Ahx}-CRVLRSGSC-OH; disulfide 1-9), in data set [5], the “peptide accumulation in other organs” value was “some accumulation of CRV in the liver and kidney, while no or much less in other organs”.
